The values that follow come from publication PMC6017115, “Inhibitory Effect of Sauchinone on UDP-Glucuronosyltransferase (UGT) 2B7 Activity” (Molecules : A Journal of Synthetic Chemistry and Natural …, 2018).

One data set concerns the target T1, UGT2B7 (Homo sapiens, UniProt P16662).
T1 sequence (P16662 24-529): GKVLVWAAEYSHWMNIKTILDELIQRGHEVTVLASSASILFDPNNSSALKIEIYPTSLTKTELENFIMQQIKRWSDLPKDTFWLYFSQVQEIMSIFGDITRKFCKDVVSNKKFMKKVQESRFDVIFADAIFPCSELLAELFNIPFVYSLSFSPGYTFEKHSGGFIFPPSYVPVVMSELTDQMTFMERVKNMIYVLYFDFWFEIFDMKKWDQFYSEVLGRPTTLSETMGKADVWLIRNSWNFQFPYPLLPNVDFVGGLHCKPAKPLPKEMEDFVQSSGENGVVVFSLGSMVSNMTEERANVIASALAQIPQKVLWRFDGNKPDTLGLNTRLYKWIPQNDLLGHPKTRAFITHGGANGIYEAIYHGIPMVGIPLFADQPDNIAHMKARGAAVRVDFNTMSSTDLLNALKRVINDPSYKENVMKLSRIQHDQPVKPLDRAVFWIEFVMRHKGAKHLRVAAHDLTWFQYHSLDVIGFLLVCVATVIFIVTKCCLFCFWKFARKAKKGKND
Briefly: Inhibition of UGT2B7 (zidovudine glucuronidation) in human liver microsomes. The class given is in vitro ADME. Set-up: tissue Corning Life Sciences 452156; host or cells: pooled human liver microsomes. On the procedure: (§1) Their IC50 values were compared to that of sauchinone. […] UGT-mediated activities in the presence of sauchinone as an inhibitor were expressed as percentages of corresponding control values (in absence of sauchinone). From percentages of control activity versus inhibitor concentrations, a sigmoid shaped curve was fitted to the data and IC50 as an enzyme inhibition parameter was calculated by fitting the Hill equation to the data using GraphPad Prism 5 (GraphPad Software Inc., San Diego, CA, USA).

Details of data set [1]: method as in PMID 25747980. Particulars: mice; oral administration of 100 mg/kg sauchinone; read-out: Cmax in mice plasma; cited from earlier work.
In data set [2] the target is T2, UGT1A6 (Homo sapiens, UniProt P19224).
T2 construct: tissue Corning Life Sciences 452156; host or cells: pooled human liver microsomes
T2 sequence (P19224 27-532): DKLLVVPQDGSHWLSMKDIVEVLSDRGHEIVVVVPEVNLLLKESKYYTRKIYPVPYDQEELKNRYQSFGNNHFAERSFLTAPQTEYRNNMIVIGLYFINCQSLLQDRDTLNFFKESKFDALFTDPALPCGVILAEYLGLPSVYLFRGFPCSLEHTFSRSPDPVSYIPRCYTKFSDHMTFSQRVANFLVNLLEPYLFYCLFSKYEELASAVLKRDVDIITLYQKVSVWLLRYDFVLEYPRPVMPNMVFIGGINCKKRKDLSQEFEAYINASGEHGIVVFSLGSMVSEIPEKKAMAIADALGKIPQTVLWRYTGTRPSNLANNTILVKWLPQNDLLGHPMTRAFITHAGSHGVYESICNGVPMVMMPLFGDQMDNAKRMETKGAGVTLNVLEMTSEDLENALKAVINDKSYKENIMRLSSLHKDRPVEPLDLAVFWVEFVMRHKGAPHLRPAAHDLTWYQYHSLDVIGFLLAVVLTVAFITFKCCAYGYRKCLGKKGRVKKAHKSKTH
Briefly: Enzyme kinetic assay (Ki, Dixon plot) of UGT1A6-mediated serotonin glucuronidation. Type of data set: in vitro ADME. The following applies: for inhibition mode on UGT1A6: Dixon plot, visual inspection. As for the experimental part: Inhibitory effects of sauchinone on UGT1A1, 1A3, 1A4, 1A6, 1A9, and 2B7 activities were evaluated using HLMs. […] Spiked volume of UGT cocktail set was 1% (v/v) of total volume of mixture. […] The reaction was initiated by adding 5 mM UDPGA to a final volume of 150 μL and incubated at 37 °C for 15 or 60 min in a thermomixer at 500 rpm. Each reaction was stopped by adding 150 μL of ice-cold methanol containing 50 ng/mL IS. These mixtures were then centrifuged (12,000 rpm for 10 min at 4 °C) and 5 μL of the supernatant was injected into a UPLC-MS/MS system. […] Their IC50 values were compared to that of sauchinone. All inhibitors were dissolved in methanol (except for hecogenin, which was dissolved in dimethyl sulfoxide) and serially diluted to the required concentrations using the same solutions. The final concentration of organic solvent of inhibitors was 1% (v/v). All studies were performed in triplicate and mean values were used in the analysis. The half maximal inhibition constant (IC50) of sauchinone on UGT isoforms was estimated using GraphPad program.
Based on IC50 values, Ki values of sauchinone for UGT1A6 and 2B7 were determined. Concentrations of 0–200 μM of sauchinone were used. Other procedures were similar to those mentioned above in the study of reversible inhibitory effects of sauchinone. Inhibitory characteristics of sauchinone were initially estimated by nonlinear least squares regression analysis and Ki values were determined by Dixon plots.

The next data set addresses T3, UGT1A3 (Homo sapiens, UniProt P35503).
T3 construct: The reaction mixture containing 0.25 mg/mL protein of HLM; tissue Corning Life Sciences 452156; host or cells: pooled human liver microsomes, 50 donors
T3 sequence (P35503 29-534): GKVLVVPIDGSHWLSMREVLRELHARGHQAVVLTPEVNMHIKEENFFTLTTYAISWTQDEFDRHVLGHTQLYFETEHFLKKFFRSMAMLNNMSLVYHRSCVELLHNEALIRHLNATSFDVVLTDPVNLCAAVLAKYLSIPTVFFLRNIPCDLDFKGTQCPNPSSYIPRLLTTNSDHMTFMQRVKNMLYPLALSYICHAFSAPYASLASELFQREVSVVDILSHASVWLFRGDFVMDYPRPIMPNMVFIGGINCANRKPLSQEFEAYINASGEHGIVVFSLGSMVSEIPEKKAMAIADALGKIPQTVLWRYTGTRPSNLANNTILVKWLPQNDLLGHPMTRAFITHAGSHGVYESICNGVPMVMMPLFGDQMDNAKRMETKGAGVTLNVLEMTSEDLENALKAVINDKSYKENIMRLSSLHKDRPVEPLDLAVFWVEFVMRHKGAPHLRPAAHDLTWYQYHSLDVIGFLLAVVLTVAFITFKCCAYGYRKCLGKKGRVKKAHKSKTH
The data set can be described thus: Inhibition of UGT1A3 (chenodeoxy cholic acid glucuronidation) in human liver microsomes. Type of data set: in vitro ADME. Particulars: substrate 15 μM chenodeoxy cholic acid, mean (minimum–maximum). As for the experimental part:
as §1
In general terms: Microsomes from liver hold many membrane-bound enzymes, among them those of drug oxidation.

For data set [3], the target named is T2, UGT1A6. Briefly: Inhibition of UGT1A6 (serotonin glucuronidation) in human liver microsomes. Type of data set: in vitro ADME. On the procedure:
as §1

For orientation: IC50 means the concentration needed to halve the response being measured. Read a high IC50 as lower potency. The term Cmax denotes the maximum level reached in the sampled fluid or tissue. As a reminder, the Ki is a measure of affinity in units of concentration, obtained from inhibition or displacement. Low values mean a stronger hold on the target, high ones a looser hold on the target. On to `C[C@@H]1[C@H]2c3cc4c(cc3O[C@@]35OCOC3=CC(=O)[C@H](C[C@H]1C)[C@@H]25)OCO4` [Sauchinone], for which the values for the IC50 against UGT2B7, on UGT1A3 and at UGT1A6 [3] were 279 nM, 43900 nM and 758 nM, respectively. The Cmax in data set [1] was 1530 nM. This molecule also returned a Ki on UGT1A6 [2] of 1080 nM. The “inhibition mode on UGT1A6” value against UGT1A6 [2] is given as “noncompetitively inhibited”; at UGT1A6 [2] (listed as sauchinone), “noncompetitive inhibition mode”. The “Vmax for UGT1A6-mediated serotonin glucuronidation with inhibitor” value at UGT1A6 [2] (sauchinone as inhibitor at 50 μM (decrease from 174 at 0 μM)) was found to be 6.36 μM/min/mg protein.
